The record followed here is ChEMBL document CHEMBL1201862, “PubChem BioAssay data set” (2004).

For experiment [1], the system named is Vero. As to the kind of experiment: cells. The settings on record: Chlorocebus sabaeus. The class given is functional, cell-based.
A short description of experiment [2]: MIN6 cell viability loss – mouse insulinoma, cytotoxicity control, dose response (AID 2122).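 Note: confirmatory high-throughput counterscreen run to flag cytotoxic compounds.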 The class given is functional.
The nature of experiment [3]: decrease of insulin promoter-GFP reporter – imaging, high-content screening, mouse beta cells (AID 1628). The settings on record: MIN6. Type of experiment: functional.
Experiment [4] deals with Vero. The experiment in a line: cells. The class given is functional. The settings on record: Chlorocebus sabaeus.
Experiment [5] concerns the target T1, Sentrin-specific protease 6 (Homo sapiens, UniProt Q9GZR1).
T1 sequence (Q9GZR1 whole entry): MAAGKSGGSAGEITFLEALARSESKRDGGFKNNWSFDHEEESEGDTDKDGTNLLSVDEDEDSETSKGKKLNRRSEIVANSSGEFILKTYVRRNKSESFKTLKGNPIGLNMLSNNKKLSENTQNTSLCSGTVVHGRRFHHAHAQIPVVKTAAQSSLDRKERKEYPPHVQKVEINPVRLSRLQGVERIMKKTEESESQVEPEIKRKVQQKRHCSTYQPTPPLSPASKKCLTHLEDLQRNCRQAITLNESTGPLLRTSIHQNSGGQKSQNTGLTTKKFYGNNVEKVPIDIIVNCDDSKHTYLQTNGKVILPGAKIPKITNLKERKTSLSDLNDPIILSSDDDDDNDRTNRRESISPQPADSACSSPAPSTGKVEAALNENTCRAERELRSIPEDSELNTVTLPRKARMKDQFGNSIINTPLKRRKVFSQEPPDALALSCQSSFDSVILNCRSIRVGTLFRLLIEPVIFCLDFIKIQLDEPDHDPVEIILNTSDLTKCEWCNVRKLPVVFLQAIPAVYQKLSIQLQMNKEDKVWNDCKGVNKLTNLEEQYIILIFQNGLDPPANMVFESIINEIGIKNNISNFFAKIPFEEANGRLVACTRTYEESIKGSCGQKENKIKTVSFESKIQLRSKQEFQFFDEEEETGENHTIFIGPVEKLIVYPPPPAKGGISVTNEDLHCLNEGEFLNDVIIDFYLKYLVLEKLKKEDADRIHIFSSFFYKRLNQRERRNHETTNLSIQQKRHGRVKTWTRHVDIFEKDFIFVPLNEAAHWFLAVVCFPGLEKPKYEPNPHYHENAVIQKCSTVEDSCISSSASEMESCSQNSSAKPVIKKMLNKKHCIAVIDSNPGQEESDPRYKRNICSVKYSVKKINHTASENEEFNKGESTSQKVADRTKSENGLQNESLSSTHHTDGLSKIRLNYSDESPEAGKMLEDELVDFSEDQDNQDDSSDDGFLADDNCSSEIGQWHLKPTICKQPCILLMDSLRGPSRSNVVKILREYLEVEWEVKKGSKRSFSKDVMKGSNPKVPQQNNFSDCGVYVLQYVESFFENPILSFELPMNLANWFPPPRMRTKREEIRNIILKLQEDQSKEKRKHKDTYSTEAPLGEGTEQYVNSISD
As to the kind of experiment: inhibition of human SENP6 catalytic domain – biochemical, luminescence, set 2, SAR follow-up (AID 588598). The class given is functional.

Experiment [6] concerns the target T2, Caspase-3 (Homo sapiens, UniProt P42574).
T2 sequence (P42574 whole entry): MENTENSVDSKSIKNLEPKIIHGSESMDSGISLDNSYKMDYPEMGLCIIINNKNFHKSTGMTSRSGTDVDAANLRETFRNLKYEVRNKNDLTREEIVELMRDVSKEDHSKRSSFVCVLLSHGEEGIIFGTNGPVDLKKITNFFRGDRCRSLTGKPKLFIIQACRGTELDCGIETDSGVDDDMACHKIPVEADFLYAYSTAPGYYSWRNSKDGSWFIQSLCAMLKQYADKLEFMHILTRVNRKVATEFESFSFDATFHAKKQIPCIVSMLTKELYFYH
As to the kind of experiment: inhibition of recombinant caspase-3 activity – biochemical, luminescence, set 2, selectivity assay for SENP protease inhibitor project, SAR follow-up (AID 588599). The class given is functional.

For experiment [7], the target named is T3, Sentrin-specific protease 8 (Homo sapiens, UniProt Q96LD8).
T3 sequence (Q96LD8 whole entry): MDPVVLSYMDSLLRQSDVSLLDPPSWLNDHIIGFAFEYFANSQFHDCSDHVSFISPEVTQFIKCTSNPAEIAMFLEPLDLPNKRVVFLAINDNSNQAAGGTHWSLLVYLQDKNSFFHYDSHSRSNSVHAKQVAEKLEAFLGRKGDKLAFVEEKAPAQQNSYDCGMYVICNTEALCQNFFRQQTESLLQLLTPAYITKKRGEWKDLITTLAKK
As to the kind of experiment: inhibition of sentrin protease 8 – biochemical, luminescence, set 2, SAR follow-up (AID 588601). The class given is functional.

Experiment [8] has as its target T4, Sentrin-specific protease 7 (Homo sapiens, UniProt Q9BQF6).
T4 sequence (Q9BQF6 whole entry): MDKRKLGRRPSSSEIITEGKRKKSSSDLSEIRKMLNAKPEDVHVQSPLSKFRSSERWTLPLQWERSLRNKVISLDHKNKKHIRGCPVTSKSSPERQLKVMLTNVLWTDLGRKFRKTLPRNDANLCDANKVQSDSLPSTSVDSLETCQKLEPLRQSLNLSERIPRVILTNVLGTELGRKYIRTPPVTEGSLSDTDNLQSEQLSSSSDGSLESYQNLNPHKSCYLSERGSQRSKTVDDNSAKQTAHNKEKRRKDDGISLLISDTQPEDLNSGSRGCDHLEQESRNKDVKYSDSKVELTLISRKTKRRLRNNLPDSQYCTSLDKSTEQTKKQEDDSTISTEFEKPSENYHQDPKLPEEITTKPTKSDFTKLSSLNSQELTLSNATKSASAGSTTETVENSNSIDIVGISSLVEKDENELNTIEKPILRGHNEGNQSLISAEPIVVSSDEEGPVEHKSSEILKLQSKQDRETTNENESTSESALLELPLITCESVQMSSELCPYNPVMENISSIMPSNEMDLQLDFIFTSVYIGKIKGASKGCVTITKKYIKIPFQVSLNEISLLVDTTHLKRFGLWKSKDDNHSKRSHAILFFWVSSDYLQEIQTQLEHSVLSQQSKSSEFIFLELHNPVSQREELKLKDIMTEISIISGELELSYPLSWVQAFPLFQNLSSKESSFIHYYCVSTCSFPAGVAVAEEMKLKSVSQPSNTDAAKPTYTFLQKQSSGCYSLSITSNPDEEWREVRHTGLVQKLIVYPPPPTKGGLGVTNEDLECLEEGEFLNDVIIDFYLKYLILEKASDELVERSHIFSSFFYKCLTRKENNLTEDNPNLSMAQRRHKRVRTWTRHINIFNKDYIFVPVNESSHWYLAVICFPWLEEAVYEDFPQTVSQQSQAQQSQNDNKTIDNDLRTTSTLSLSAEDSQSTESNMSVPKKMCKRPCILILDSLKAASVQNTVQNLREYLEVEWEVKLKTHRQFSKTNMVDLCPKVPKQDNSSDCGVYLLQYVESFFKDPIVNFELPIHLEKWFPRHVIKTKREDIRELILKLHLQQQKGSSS
As to the kind of experiment: inhibition of human SENP7 cleavage activity – biochemical, luminescence, set 2, SAR follow-up (AID 588600). The class given is functional.

Experiment [9] concerns INS1. The experiment in a line: INS-1E survival protection against cytokine death – cell-based, luminescence, retest, dose response (AID 449756).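 Note: cell death triggered by IL-1 beta plus TNF-alpha plus IFN-gamma mixture; protective hits raise ATP signal compared with cytokine alone wells.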 Type of experiment: functional. The settings on record: Rattus norvegicus.
Experiment [10] is described as follows: cells. The class given is functional, cell-based.
The nature of experiment [11]: NIH-3T3 fibroblast cytotoxicity, dose response, cytotoxicity control, cell-based, fluorescence, Alamar Blue, secondary assay (AID 2327).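 Note: NIH-3T3 mouse fibroblasts cultured with fluconazole at 8 µg/mL.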 Type of experiment: functional. (In general: The colour change of resazurin is a common sign of viable cells or microbes.)
Experiment [12] in a line: cells. Type of experiment: functional, cell-based. This is another data set of the same source.
The test system of experiment [13] is A-375. As to the kind of experiment: proliferation inhibition in MITF-low A375 cells – cell-based, cherry-pick samples, set 2, counter-screen for MITF modulator project, dose response (AID 540335). Type of experiment: functional. The settings on record: Homo sapiens.
The target of experiment [14] is T5, Microphthalmia-associated transcription factor (Homo sapiens, UniProt O75030).
T5 sequence (O75030 whole entry): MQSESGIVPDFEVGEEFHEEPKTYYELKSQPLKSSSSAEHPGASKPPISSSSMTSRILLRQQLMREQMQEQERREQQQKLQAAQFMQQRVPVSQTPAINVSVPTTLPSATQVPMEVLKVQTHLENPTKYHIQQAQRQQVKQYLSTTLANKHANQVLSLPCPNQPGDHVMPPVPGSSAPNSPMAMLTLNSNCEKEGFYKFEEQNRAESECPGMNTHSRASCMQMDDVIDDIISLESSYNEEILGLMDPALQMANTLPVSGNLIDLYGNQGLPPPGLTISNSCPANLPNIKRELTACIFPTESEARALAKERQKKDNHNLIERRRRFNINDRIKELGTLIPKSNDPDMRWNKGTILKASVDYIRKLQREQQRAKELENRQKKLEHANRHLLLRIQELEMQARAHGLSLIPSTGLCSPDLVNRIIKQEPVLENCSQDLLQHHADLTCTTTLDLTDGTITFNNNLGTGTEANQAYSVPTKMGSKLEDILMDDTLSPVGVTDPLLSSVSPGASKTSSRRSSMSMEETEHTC
As to the kind of experiment: reducers of TRPM1 reporter luminescence, concentration series – cell-based, SK-MEL-5, cherry-picked, set 3, MITF inhibitor project, dose response (AID 493073).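 Note: SK-MEL-5 melanoma cells with luciferase driven by the MITF target TRPM1 promoter.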 Type of experiment: functional.

Experiment [15] can be described thus: fluconazole-exposed Candida albicans growth modulators – fluorescence, retest, confirmation (AID 2467). The class given is functional, cell-based.
The target in experiment [16] is Beta-2 adrenergic receptor (Homo sapiens, UniProt P07550). As to the kind of experiment: ADRB2 activation measured by internalization – cell-based, FAP fluorogen, flow cytometry, cherry pick 1, dose response (AID 588763). Type of experiment: functional.
Beta-2 adrenergic receptor, sequence (P07550 whole entry): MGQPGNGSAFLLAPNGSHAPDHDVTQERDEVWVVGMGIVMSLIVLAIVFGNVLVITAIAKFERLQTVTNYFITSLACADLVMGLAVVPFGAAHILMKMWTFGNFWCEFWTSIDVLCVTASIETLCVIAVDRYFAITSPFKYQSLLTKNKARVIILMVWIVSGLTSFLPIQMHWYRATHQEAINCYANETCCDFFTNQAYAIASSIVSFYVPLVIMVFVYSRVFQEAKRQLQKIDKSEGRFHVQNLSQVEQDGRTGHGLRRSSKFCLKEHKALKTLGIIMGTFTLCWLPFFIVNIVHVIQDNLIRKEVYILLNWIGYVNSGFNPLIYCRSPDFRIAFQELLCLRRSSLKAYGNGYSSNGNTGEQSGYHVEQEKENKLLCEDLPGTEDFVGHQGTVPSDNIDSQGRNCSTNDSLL

Activity calls are given as the source filed them.

Regarding `Cc1ccc(-n2ncc3c(SCc4cccnc4)ncnc32)c(C)c1`, the IC50 in experiment [1] was 21.8 µM (active); in experiment [2], 1.09 µM (active); in experiment [3], 1.77 µM (active). Also, the CC50 in [4] was 20.9 µM (active).

With `Cc1[nH]c2ccccc2c1C(=O)C(=O)NCc1cccnc1`, the IC50 in [5], in experiment [6], in [7] and in [8] was > 99 µM (inactive) throughout.

With `O=C(N/N=C\c1cc(Cl)ccc1O)c1ccc(S(=O)(=O)N2CCCCC2)cc1`, the AC50 was 1.01 µM (active) in [9], 46.3 µM (active) in experiment [13] and 2.81 µM (active) in experiment [14]. In addition, the EC50 is 265 µM (active) in experiment [10], 63.9 µM (inconclusive) in experiment [11], > 350 µM (not active) in experiment [12] and 0.381 µM (active) in experiment [15].

For the molecule `CCOCCCNC(=O)c1cc(-c2cccnc2)nc2ccc(S(=O)(=O)N3CCC(C)CC3)cc12`, in experiment [16], the EC50 was 6.09 µM (inactive).

One may read the IC50 as the concentration at which inhibition is half-maximal. The term CC50 denotes the concentration giving 50% cytotoxicity. Broadly, the AC50 is the midpoint of the concentration-response curve, whichever way the signal moves. A word on the EC50: it is the midpoint of the concentration-response curve.
